Assay results reported in patent US6369225B1, “Compounds having activity as inhibitors of cytochrome P450RAI” (Allergan Sales, Inc., priority 2000, dated 2002).

Tests used:
[1] = biological target: T1, P450RAI-1 (Homo sapiens, UniProt O43174); test: P450RAI-1 cell-based inhibitor assay; conditions: P450RAI-1 stably transfected HeLa cells, [3H]-RA metabolism, 3 hours at 37° C.; read-out: P450RAI INHIBITION DATA INTACT HELA IC50
T1 construct: expressed in transfected cells; host or cells: HeLa cells, stably transfected, hygromycin selection
T1 sequence (O43174 1-497): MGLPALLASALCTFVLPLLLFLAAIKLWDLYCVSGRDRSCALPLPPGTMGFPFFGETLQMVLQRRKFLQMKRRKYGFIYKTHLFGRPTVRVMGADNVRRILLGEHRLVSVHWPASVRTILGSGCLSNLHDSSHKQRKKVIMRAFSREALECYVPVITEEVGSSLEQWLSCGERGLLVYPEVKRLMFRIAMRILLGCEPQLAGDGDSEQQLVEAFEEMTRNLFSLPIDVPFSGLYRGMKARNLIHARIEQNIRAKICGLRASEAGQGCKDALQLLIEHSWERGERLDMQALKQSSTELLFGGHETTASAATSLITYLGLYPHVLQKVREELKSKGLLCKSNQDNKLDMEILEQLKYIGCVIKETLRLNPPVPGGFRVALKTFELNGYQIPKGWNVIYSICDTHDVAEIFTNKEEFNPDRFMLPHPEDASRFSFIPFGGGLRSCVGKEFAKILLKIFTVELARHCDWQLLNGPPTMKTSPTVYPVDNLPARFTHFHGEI
Method: P450RAI-1 stably transfected HeLa cells are maintained in […] tissue culture dishes in Modified Eagle's Medium (MEM) containing 10% Fetal Bovine Serum (FBS) and 100 μg/ml hygromycin. Exponentially growing cells are harvested by incubating in trypsin. Cells are then washed with 1× Phosphate Buffered Saline (PBS) and plated in a 48-well plate at 5×10^5 cells in 0.2 ml MEM medium containing 10% FBS and 0.05 μCi[^3H]-RA in the presence or absence of increasing concentrations of the test compounds. The compounds are diluted in 100% DMSO and then added in triplicate wells at either 10, 1 or 0.1 μM final concentration. As a positive control for RA metabolism inhibition, cells are also incubated with ketoconazole at 100, 10 and 1 μM. Cell are incubated for 3 hours at 37° C. […] The water soluble radioactivity is quantified using a β-scintillation counter. IC50 values represent the concentration of inhibitor required to inhibit all-trans-RA metabolism by 50 percent and are derived manually from log-transformed data.

[2] = biological target: T2, RARγ (Homo sapiens, UniProt P13631); test: ligand binding assay, RARγ; conditions: Kd line of EC50/(EFFICACY)/Kd, read-out: RAR Kd γ
T2 sequence (P13631 1-454): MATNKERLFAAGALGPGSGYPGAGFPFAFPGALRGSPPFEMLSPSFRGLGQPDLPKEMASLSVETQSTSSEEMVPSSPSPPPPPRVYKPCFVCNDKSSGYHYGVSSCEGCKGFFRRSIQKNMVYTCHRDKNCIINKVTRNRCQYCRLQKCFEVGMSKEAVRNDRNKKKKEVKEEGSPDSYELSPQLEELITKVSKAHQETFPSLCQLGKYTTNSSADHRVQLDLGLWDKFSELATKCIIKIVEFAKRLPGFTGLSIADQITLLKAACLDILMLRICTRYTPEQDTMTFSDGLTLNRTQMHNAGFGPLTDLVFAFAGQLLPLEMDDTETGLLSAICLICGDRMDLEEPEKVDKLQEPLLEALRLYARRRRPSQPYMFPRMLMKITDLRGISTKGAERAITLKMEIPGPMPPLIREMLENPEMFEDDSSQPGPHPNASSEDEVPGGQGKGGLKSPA
Excerpt: (§1) Assays described below measure the ability of a compound to bind to, and/or activate various retinoid receptor subtypes. When in these assays a compound binds to a given receptor subtype and activates the transcription of a reporter gene through that subtype, then the compound is considered an agonist of that receptor subtype. […] In the below described assays the ability of the compounds to bind to RARα, RARβ, RARγ, RXRα, RXRβ and RXRγ receptors, and the ability or inability of the compounds to activate transcription of a reporter gene through these receptor subtypes can be tested.
(§2) A holoreceptor transactivation assay and a ligand binding assay which measure the antagonist/agonist like activity of the compounds of the invention, or their ability to bind to the several retinoid receptor subtypes, respectively, are described in published PCT Application No. WO WO93/11755 (particularly on pages 30-33 and 37-41) published on Jun. 24, 1993, the specification of which is also incorporated herein by reference. A detailed experimental procedure for holoreceptor transactivations has been described by Heyman et al. Cell 68, 397-406, (1992); Allegretto et al. J. Biol. Chem. 268, 26625-26633, and Mangelsdorf et al. The Retinoids: Biology, Chemistry and Medicine, pp 319-349, Raven Press Ltd., New York, which are expressly incorporated herein by reference. The results obtained in this assay are expressed in EC50 numbers, as they are also in the chimeric receptor transactivation assay. The results of ligand binding assay are expressed in Kd numbers. (See Cheng et al. Biochemical Pharmacology Vol. 22 pp 3099-3108, expressly incorporated herein by reference.)
(§3) The results if the ligand binding assay for several preferred compounds of the invention are included in Table 1.

[3] = biological target: T3, RARα (Homo sapiens, UniProt P10276); test: ligand binding assay, RARα; conditions: Kd line of EC50/(EFFICACY)/Kd, read-out: RAR Kd α
T3 sequence (P10276 1-462): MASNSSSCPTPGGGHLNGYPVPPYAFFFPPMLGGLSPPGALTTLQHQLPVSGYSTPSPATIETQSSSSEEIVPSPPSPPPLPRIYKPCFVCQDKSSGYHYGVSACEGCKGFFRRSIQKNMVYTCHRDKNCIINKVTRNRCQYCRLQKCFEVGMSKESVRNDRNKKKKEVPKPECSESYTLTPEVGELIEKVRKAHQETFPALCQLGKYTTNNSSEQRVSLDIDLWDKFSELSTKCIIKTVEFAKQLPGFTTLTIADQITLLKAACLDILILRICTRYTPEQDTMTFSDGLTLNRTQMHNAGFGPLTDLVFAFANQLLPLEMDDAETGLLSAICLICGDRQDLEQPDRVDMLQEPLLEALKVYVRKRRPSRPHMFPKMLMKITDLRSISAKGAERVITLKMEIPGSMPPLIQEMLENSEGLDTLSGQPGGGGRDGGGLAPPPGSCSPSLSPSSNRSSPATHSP
Excerpt: as §1, §2, §3

[4] = biological target: T4, RARβ (Homo sapiens, UniProt P10826); test: ligand binding assay, RARβ; conditions: Kd line of EC50/(EFFICACY)/Kd, read-out: RAR Kd β
T4 sequence (P10826 1-455): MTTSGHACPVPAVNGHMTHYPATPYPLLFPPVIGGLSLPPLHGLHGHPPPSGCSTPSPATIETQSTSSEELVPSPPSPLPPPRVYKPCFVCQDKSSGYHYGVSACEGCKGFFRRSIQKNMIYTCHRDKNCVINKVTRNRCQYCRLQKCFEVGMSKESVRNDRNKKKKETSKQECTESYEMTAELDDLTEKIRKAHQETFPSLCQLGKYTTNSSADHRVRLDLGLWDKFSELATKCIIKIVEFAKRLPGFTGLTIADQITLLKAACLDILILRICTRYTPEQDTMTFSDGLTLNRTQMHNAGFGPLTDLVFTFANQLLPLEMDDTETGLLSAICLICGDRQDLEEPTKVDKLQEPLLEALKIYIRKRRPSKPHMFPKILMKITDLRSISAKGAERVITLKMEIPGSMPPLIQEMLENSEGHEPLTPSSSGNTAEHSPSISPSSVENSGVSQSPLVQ
Excerpt: as §1
as §2, with “A detailed experimental procedure for holoreceptor transactivations has been described by Heyman et al. Cell 68, 397-406, (1992); Allegretto et al. J. Biol. Chem. 268, 26625-26633, and Mangelsdorf et al. The Retinoids: Biology, Chemistry and Medicine, pp 319-349, Raven Press Ltd., New York, which are expressly incorporated herein by reference.” left out

CC1(C)CCC(=O)c2ccc(C(=O)Oc3ccc(CC(=O)O)cc3)cc21 [Compound 20, 8,8-Dimethyl-5-oxo-5,6,7,8-tetrahydro-naphthalene-2-carboxylic Acid-4-(carboxymethyl)phenyl Ester]
IC50 [1]: > 10000 nM

CC1(C)CN(C2CC2)Cc2ccc(C#Cc3ccc(CC(=O)O)cc3)cc21 [Compound 24, [4-(2-Cyclopropyl-4,4-dimethyl-1,2,3,4-tetrahydro-isoquinoline-6-yl-ethynyl)-phenyl]-acetic Acid]
IC50 [1]: 3000 nM

CC1(C)CC(C)(C)c2cc(C#Cc3ccc(CC(=O)O)cc3)ccc2O1 [Compound 28, [4-(2,2,4,4-Tetramethyl-chroman-6-yl-ethynyl)phenyl]acetic Acid]
Kd [2]: > 10000 nM | Kd [3]: 21000 nM | IC50 [1]: 340 nM | Kd [4]: 4270 nM

CC1(C)CC(C)(C)c2cc(C#Cc3ccc(C(=O)O)c(F)c3)ccc2O1 [Compound 30, 2-Fluoro-4-(2,2,4,4-tetramethyl-chroman-6-yl-ethynyl)-benzoic Acid]
Kd [2]: 84 nM | Kd [3]: 14 nM | IC50 [1]: 280 nM | Kd [4]: 2.2 nM

CC1(C)CC(C)(C)c2cc(C(=O)Oc3ccc(CC(=O)O)cc3)ccc2O1 [Compound 46, 1,2,2,4,4-Tetramethyl-chroman-6-carboxylic Acid 4-(carboxymethyl)phenyl Ester]
IC50 [1]: 2200 nM

CC1(C)CC2(CC2)Oc2c(C3CC3)cc(C#Cc3ccc(C(=O)O)cc3)cc21 [Compound 52, Benzoic Acid, 4-[(8-cyclopropyl-3,4-dihydro-4,4-dimethylspiro[2H-1-benzopyran-2,1′-cyclopropane]-6-yl)ethynyl]-]
IC50 [1]: 50 nM

CC1(C)CC2(CC2)Oc2c(C3CC3)cc(C#Cc3ccc(C(=O)O)c(F)c3)cc21 [Compound 54, 4-[(8-Cyclopropyl-3,4-dihydro-4,4-dimethylspiro[2H-1-benzopyran-2,1′-cyclopropane]-6-yl)ethynyl]-2-fluoro-benzoic Acid]
IC50 [1]: 22 nM

CCc1cc(C#Cc2ccc(CC(=O)O)cc2)cc2c1OC(C)(C)CC2(C)C [Compound 56, [4-(8-Ethyl-2,2,4,4-tetramethyl-chroman-6-yl-ethynyl)phenyl]acetic Acid]
IC50 [1]: 130 nM

CC1(C)CC2(CC2)Oc2c(C3CC3)cc(C(=O)Oc3cccc(CC(=O)O)c3)cc21 [Compound 60, Spiro[2H-1-benzopyran-2,1′-cyclopropane]-6-carboxylic Acid, 8-cyclopropyl-3,4-dihydro-4,4-dimethyl-, 3-(carboxymethyl)phenyl Ester]
IC50 [1]: 1600 nM

CC1(C)CCN(C2CC2)c2ccc(C#Cc3ccc(C(=O)O)cc3)cc21 [Compound 62, 4-(1-Cyclopropyl-4,4-dimethyl-1,2,3,4-tetrahydroquinolin-6-yl-ethynyl)-benzoic Acid]
IC50 [1]: > 10000 nM

CCc1cc(C#Cc2ccc(CC(=O)O)cc2)ccc1C1(OC(C)C)CC1 [Compound 98, {4-[4-(1-Isopropoxycyclopropyl)-3-ethyl-phenylethynyl]-phenyl}-acetic Acid]
IC50 [1]: 800 nM

O=C(O)c1ccc(C#Cc2ccc(C3(N(Cc4ccccc4)Cc4ccccc4)CC3)cc2)cc1 [Compound 114, 4-[4-(1-Dibenzylamino-cyclopropyl)-phenylethynyl]-benzoic Acid]
Kd [2]: > 10000 nM | Kd [3]: > 10000 nM | IC50 [1]: > 10000 nM

Cc1cc(C#Cc2ccc(CC(=O)O)cc2)ccc1Cn1ccnc1 [Compound 121, [4-(4-Imidazol-1-yl-methyl-3-methyl-phenylethynyl)-phenyl]-acetic Acid]
Kd [2]: > 100000 nM | Kd [3]: > 10000 nM

CCN(Cc1ccc(C#Cc2ccc(C(=O)O)cc2)cc1C(C)C)C1CC1 [Compound 134, 4-{4-[(Cyclopropyl-ethyl-amino)-methyl]-3-isopropyly-phenylethynyl}-benzoic Acid]
IC50 [1]: 5000 nM

CC1(C)CCC(n2ccnc2)c2ccc(C#Cc3ccc(C(=O)O)cc3)cc21 (centres unmarked) [Compound 139]
IC50 [1]: 50 nM

COc1c(C(C)(C)C)cc(C#Cc2ccc(CC(=O)O)cc2)cc1C(C)(C)C [Compound 143, [4-(3,5-Di-tert-butyl-4-methoxy-phenylethynyl)-phenyl]-acetic Acid]
IC50 [1]: 800 nM

COc1c(C(C)(C)C)cc(C#Cc2ccc(CC(=O)O)c(F)c2)cc1C(C)(C)C [Compound 145, [4-(3,5-Di-tert-butyl-4-methoxy-phenylethynyl)-2-fluoro-phenyl]-acetic Acid]
IC50 [1]: 200 nM
